Patent publication US6297247A, “Sulfonamide inhibitors of matrix metalloproteinases” (priority 2000, dated 2001)
Where a name gives a salt, the structure may show the parent alone.

Key:
[1] = target: GCD (recombinant gelatinase A catalytic domain); test: Inhibition of recombinant gelatinase A catalytic domain (GCD), thiopeptolide substrate; type: biochemical; conditions: thiopeptolide substrate Ac-Pro-Leu-Gly-thioester-Leu-Leu-Gly-OEt
[2] = target: T1, SCD (stromelysin-1 catalytic domain) (Homo sapiens, UniProt P08254); test: Inhibition of stromelysin-1 catalytic domain (SCD), thiopeptolide substrate; type: biochemical; conditions: thiopeptolide substrate Ac-Pro-Leu-Gly-thioester-Leu-Leu-Gly-OEt
T1 construct: SCD (stromelysin-1 catalytic domain)
Procedure: IC50 values were determined using a thiopeptolide substrate, Ac-Pro-Leu-Gly-thioester-Leu-Leu-Gly-OEt (Ye Q.-Z., Johnson L. L., Hupe D. J. and Baragi V., "Purification and Characterization of the Human Stromelysin Catalytic Domain Expressed in Escherichia coli", Biochemistry,1992;31:11231-11235).

[3] = system: experimental allergic encephalomyelitis (EAE); conditions: in vivo; cited from earlier work
pig articular cartilage = conditions: cited from earlier work
bovine nasal cartilage = conditions: cited from earlier work

T1 sequence (P08254 100-272 limits assumed): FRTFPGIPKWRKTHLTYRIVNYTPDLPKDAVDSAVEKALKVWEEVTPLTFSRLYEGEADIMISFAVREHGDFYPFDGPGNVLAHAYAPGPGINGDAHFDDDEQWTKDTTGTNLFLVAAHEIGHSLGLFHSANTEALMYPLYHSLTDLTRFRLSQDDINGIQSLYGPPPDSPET

Molecule	IC50 [1] [µM]	IC50 [2] [µM]	development or clinical expression of EAE [3]	formation of collagen fragments and proteoglycan fragments (pig articular cartilage)	formation of collagen fragments and proteoglycan fragments (bovine nasal cartilage)
O=C(O)C(CCCc1ccccc1)NS(=O)(=O)c1ccc(N2CCC(c3ccccc3)CC2)cc1 (racemic) [Example 9, (±)-5-Phenyl-2-[4-(4-phenyl-piperidin-1-yl)-benzenesulfonylamino]-pentanoic acid]	0.4	0.3	–	–	–
O=C(O)CNS(=O)(=O)c1ccc(N2CCC(c3ccccc3)CC2)cc1 [Example 1, [4-(4-Phenyl-piperidin-1-yl)-benzenesulfonylamino]-acetic acid]	0.21	–	–	–	–
O=C(CNS(=O)(=O)c1ccc(N2CCC(c3ccccc3)CC2)cc1)NO [Example 2, N-Hydroxy-2-[4-(4-phenyl-piperidin-1-yl)-benzenesulfonylamino]-acetamide]	0.81	–	–	–	–
O=C(O)CCNS(=O)(=O)c1ccc(N2CCC(c3ccccc3)CC2)cc1 [Example 3, 3-[4-(4-Phenyl-piperidin-1-yl)-benzenesulfonylamino]-propionic acid]	4.8	1.24	–	–	–
CC(C)C[C@@H](NS(=O)(=O)c1ccc(N2CCC(c3ccccc3)CC2)cc1)C(=O)O [Example 4, (R)-4-Methyl-2-[4-(4-phenyl-piperidin-1-yl)-benzenesulfonylamino]-pentanoic acid]	0.93	0.036	–	–	–
CC(C)C[C@H](NS(=O)(=O)c1ccc(N2CCC(c3ccccc3)CC2)cc1)C(=O)O [Example 5, (S)-4-Methyl-2-[4-(4-phenyl-piperidin-1-yl)-benzenesulfonylamino]-pentanoic acid]	0.084	0.011	–	–	–
O=C(O)[C@H](Cc1ccccc1)NS(=O)(=O)c1ccc(N2CCC(c3ccccc3)CC2)cc1 [Example 6, (S)-3-Phenyl-2-[4-(4-phenyl-piperidin-1-yl)-benzenesulfonylamino]-propionic acid]	0.22	–	–	–	–
O=C(O)[C@@H](Cc1ccccc1)NS(=O)(=O)c1ccc(N2CCC(c3ccccc3)CC2)cc1 [Example 7, (R)-3-Phenyl-2-[4-(4-phenyl-piperidin-1-yl)-benzenesulfonylamino]-propionic acid]	0.12	0.012	–	–	–
O=C(O)[C@H](Cc1c[nH]c2ccccc12)NS(=O)(=O)c1ccc(N2CCC(c3ccccc3)CC2)cc1 [Example 8, (S)-3-(1H-Indol-3-yl)-2-[4-(4-phenyl-piperidin-1-yl)-benzenesulfonylamino]-propionic acid]	0.32	0.01	–	–	–
O=C(O)CNS(=O)(=O)c1ccc(N2CCN(c3ccccc3)CC2)cc1 [Example 10, [4-(4-Phenyl-piperazin-1-yl)-benzenesulfonylamino]-acetic acid]	0.5	0.05	–	–	–
CC(C)CN(CC(=O)O)S(=O)(=O)c1ccc(N2CCC(c3ccccc3)CC2)cc1 [Example 11, {Isobutyl-[4-(4-phenyl-piperidin-1-yl)-benzenesulfonyl]amino}-acetic acid]	3.3	0.17	–	–	–
O=C(O)[C@H](Cc1ccccc1)NS(=O)(=O)c1ccc(N2CCC(Cc3ccccc3)CC2)cc1 [Example 12, (S)-2-[4-(4-Benzyl-piperidin-1-yl)-benzenesulfonylamino]-3-phenyl-propionicacid]	3.2	0.6	–	–	–
CNC(=O)[C@H](Cc1c[nH]c2ccccc12)NC(=O)[C@@H](CC(=O)NO)CC(C)C [GM6001]	–	–	suppressed the development or reversed the clinical expression of experimental allergic encephalomyelitis (EAE) in a dose dependent manner	–	–
TIMP-1: natural endogenous inhibitors of MMPs (TIMPS)	–	–	–	prevented the formation of collagen fragments, but not proteoglycan fragments	prevented the formation of collagen fragments, but not proteoglycan fragments

The next lines start with results.

IC50 [1] [µM]	IC50 [2] [µM]	Molecule	development or clinical expression of EAE [3]	formation of collagen fragments and proteoglycan fragments (pig articular cartilage)	formation of collagen fragments and proteoglycan fragments (bovine nasal cartilage)
5.3	0.19	O=C(O)[C@H](Cc1ccc(OCc2ccccc2)cc1)NS(=O)(=O)c1ccc(N2CCC(c3ccccc3)CC2)cc1 [Example 13, (S)-3-(4-Benzyloxy-phenyl)-2-[4-(4-phenyl-piperidin-1-yl)-benzenesulfonylamino]-propionic acid]	–	–	–
0.13	0.015	O=C(O)[C@H](Cc1ccc(O)cc1)NS(=O)(=O)c1ccc(N2CCC(c3ccccc3)CC2)cc1 [Example 14, (S)-3-(4-Hydroxy-phenyl)-2-[4-(4-phenyl-piperidin-1-yl)-benzenesulfonylamino]-propionic acid]	–	–	–
0.088	0.021	O=C(O)[C@H](Cc1ccccc1)NS(=O)(=O)c1ccc(N2CCN(c3ccccc3)CC2)cc1 [Example 15, (S)-3-Phenyl-2-[4-(4-phenyl-piperazin-1-yl)-benzenesulfonylamino]-propionicacid]	–	–	–
0.33	0.062	COc1cccc(N2CCN(c3ccc(S(=O)(=O)N[C@@H](Cc4ccccc4)C(=O)O)cc3)CC2)c1 [Example 16, (S)-2-{4-[-4-(3-Methoxy-phenyl)-piperazin-1-yl]-benzenesulfonylamino}-3-phenyl-propionic acid]	–	–	–
0.18	0.077	O=C(O)[C@H](Cc1ccccc1)NS(=O)(=O)c1ccc(N2CCN(c3cccc(O)c3)CC2)cc1 [Example 17, (S)-2-{4-[-4-(3-Hydroxy-phenyl)-piperazin-1-yl]-benzenesulfonylamino}-3-phenyl-propionic acid hydrobromide]	–	–	–
0.033	–	COc1ccc(N2CCN(c3ccc(S(=O)(=O)N[C@@H](Cc4ccccc4)C(=O)O)cc3)CC2)cc1 [Example 18, (S)-2-{4-[-4-(4-Methoxy-phenyl)-piperazin-1-yl]-benzenesulfonylamino}-3-phenyl-propionic acid]	–	–	–
